Measured values from PMC11594981 (International Journal of Molecular Sciences, 2024).

Molecular target: T1, CYP3A4 (Homo sapiens, UniProt P08684)
T1 construct: recombinant CYP3A4 (BACULOSOMES Plus reagent)
Assay: fluorogenic substrate turnover by recombinant CYP3A4 (Vivid kit)
Format: biochemical

T1 sequence (P08684 2-503): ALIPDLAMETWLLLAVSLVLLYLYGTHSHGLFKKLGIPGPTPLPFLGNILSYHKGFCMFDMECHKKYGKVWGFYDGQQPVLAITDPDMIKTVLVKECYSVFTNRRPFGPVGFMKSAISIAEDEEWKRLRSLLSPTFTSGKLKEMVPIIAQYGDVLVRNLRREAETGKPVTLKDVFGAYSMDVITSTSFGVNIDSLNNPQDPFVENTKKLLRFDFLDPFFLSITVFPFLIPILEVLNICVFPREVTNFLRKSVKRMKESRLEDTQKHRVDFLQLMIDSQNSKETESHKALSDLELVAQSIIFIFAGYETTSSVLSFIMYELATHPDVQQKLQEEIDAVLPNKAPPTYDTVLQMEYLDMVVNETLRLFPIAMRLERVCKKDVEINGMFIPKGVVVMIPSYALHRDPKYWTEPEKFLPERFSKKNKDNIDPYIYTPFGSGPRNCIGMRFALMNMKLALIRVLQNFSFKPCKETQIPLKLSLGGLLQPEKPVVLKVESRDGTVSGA

N#Cc1cc2ccc(OCOCc3ccccc3)cc2oc1=O [BOMCC, 7-benzyloxymethoxy-3-cyano-coumarin]
fluorogenic substrate turnover by recombinant CYP3A4 (Vivid kit): Inhibition of BOMC transformation by CYP3A4 in the presence of ivermectin
